Measurements: patent publication US20230085307A1, “PYRIDAZINONE COMPOUND AND HERBICIDE” (NISSAN CHEMICAL CORPORATION, priority 2019, published 2023)

Legend:
late watergrass = assay: Test Example 1: herbicidal activity, application before weed generation under submerged conditions (Table 16, symbol A); type: in vivo, late watergrass (Echinochloa oryzicola); details: amount of applied herbicide 320 g/ha
Method in brief: (§1)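 Alluvial soil was flooded to 4 cm depth, weed seeds were sown mixed and 2.5-leaf rice seedlings were transplanted. On sowing day, the compound's emulsion, diluted in water to a set dose, was applied to the water surface. Plants grew at 25–30 °C and were scored 0–5 after three weeks.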

Japanese bulrush = assay: Test Example 1: herbicidal activity, application before weed generation under submerged conditions (Table 16, symbol B); type: in vivo, Japanese bulrush (Schoenoplectus juncoides); details: amount of applied herbicide 320 g/ha
Method in brief: as §1

oval-leafed pondweed = assay: Test Example 1: herbicidal activity, application before weed generation under submerged conditions (Table 16, symbol C); type: in vivo, oval-leafed pondweed (Monochoria vaginalis); details: amount of applied herbicide 320 g/ha
Method in brief: as §1

barnyard grass [1] = assay: Test Example 3: herbicidal effect by foliage application, Wagner pot (Table 18, symbol H); type: in vivo, barnyard grass (Echinochloa crus-galli); details: 320 g/ha
Method in brief: (§2)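 Plants were sown in alluvial soil held under 0.1–0.5 cm standing water and grown 14 days in a greenhouse at 25–30 °C. An emulsifiable formulation, water-diluted to the set dose, was then sprayed onto the foliage, and effects were scored three weeks later using previously defined criteria.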

Chinese sprangletop = assay: Test Example 3: herbicidal effect by foliage application, Wagner pot (Table 18, symbol D); type: in vivo, chinese sprangletop (Leptochloa chinensis); details: 320 g/ha
Method in brief: as §2

rice flat sedge = assay: Test Example 3: herbicidal effect by foliage application, Wagner pot (Table 18, symbol E); type: in vivo, rice flat sedge (Cyperus iria); details: 320 g/ha
Method in brief: as §2

southern crabgrass [2] = assay: Test Example 4: herbicidal effect by soil treatment (Table 19, symbol F); type: in vivo, southern crabgrass (Digitaria ciliaris); details: amount of applied herbicide 320 g/ha
Method in brief: (§3)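 Seeds were sown in sterilized diluvial soil and covered with about 1.5 cm of soil. An emulsion formulation diluted with water to a predetermined herbicide amount was sprayed evenly onto the soil surface. Plants grew in a greenhouse at 25° C. to 30° C., and the effect was scored three weeks after application using criteria from an earlier test.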

green foxtail [3] = assay: Test Example 4: herbicidal effect by soil treatment (Table 19, symbol G); type: in vivo, green foxtail (Setaria viridis); details: amount of applied herbicide 320 g/ha
Method in brief: as §3

barnyard grass [4] = assay: Test Example 4: herbicidal effect by soil treatment (Table 19, symbol H); type: in vivo, barnyard grass (Echinochloa crus-galli); details: amount of applied herbicide 320 g/ha
Method in brief: as §3

wild oat [5] = assay: Test Example 4: herbicidal effect by soil treatment (Table 19, symbol I); type: in vivo, wild oat (Avena fatua); details: amount of applied herbicide 320 g/ha
Method in brief: as §3

blackgrass [6] = assay: Test Example 4: herbicidal effect by soil treatment (Table 19, symbol J); type: in vivo, blackgrass (Alopecurus myosuroides); details: amount of applied herbicide 320 g/ha
Method in brief: as §3

Italian ryegrass [7] = assay: Test Example 4: herbicidal effect by soil treatment (Table 19, symbol K); type: in vivo, Italian ryegrass (Lolium multiflorum); details: amount of applied herbicide 320 g/ha
Method in brief: as §3

windgrass [8] = assay: Test Example 4: herbicidal effect by soil treatment (Table 19, symbol L); type: in vivo, windgrass (Apera spica-venti); details: amount of applied herbicide 320 g/ha
Method in brief: as §3

velvetleaf [9] = assay: Test Example 4: herbicidal effect by soil treatment (Table 19, symbol M); type: in vivo, velvetleaf (Abutilon theophrasti); details: amount of applied herbicide 320 g/ha
Method in brief: as §3

redroot pigweed [10] = assay: Test Example 4: herbicidal effect by soil treatment (Table 19, symbol N); type: in vivo, redroot pigweed (Amaranthus retroflexus); details: amount of applied herbicide 320 g/ha
Method in brief: as §3

lambsquarters [11] = assay: Test Example 4: herbicidal effect by soil treatment (Table 19, symbol O); type: in vivo, lambsquarters (Chenopodium album); details: amount of applied herbicide 320 g/ha
Method in brief: as §3

chickweed [12] = assay: Test Example 4: herbicidal effect by soil treatment (Table 19, symbol P); type: in vivo, common chickweed (Stellaria media); details: amount of applied herbicide 320 g/ha
Method in brief: as §3

false cleavers = assay: Test Example 4: herbicidal effect by soil treatment (Table 19, symbol Q); type: in vivo, false cleavers (Galium spurium); details: amount of applied herbicide 320 g/ha
Method in brief: as §3

persian speedwell [13] = assay: Test Example 4: herbicidal effect by soil treatment (Table 19, symbol R); type: in vivo, Persian speedwell (Veronica persica); details: amount of applied herbicide 320 g/ha
Method in brief: as §3

southern crabgrass [14] = assay: Test Example 5: herbicidal effect by foliage application, plastic box (Table 20, symbol F); type: in vivo, southern crabgrass (Digitaria ciliaris); details: amount of applied herbicide 320 g/ha; foliage application after 14-day growth; evaluated three weeks after application
Method in brief: (§4)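 Plants sown in sterilized diluvial soil and grown 14 days in a greenhouse at 25° C to 30° C, then sprayed on the foliage with the compound's emulsion diluted in water to a predetermined herbicide amount. Injury to weeds and crops scored three weeks after application on a visual rating scale.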

green foxtail [15] = assay: Test Example 5: herbicidal effect by foliage application, plastic box (Table 20, symbol G); type: in vivo, green foxtail (Setaria viridis); details: amount of applied herbicide 320 g/ha; foliage application after 14-day growth; evaluated three weeks after application
Method in brief: as §4

barnyard grass [16] = assay: Test Example 5: herbicidal effect by foliage application, plastic box (Table 20, symbol H); type: in vivo, barnyard grass (Echinochloa crus-galli); details: amount of applied herbicide 320 g/ha; foliage application after 14-day growth; evaluated three weeks after application
Method in brief: as §4

wild oat [17] = assay: Test Example 5: herbicidal effect by foliage application, plastic box (Table 20, symbol I); type: in vivo, wild oat (Avena fatua); details: amount of applied herbicide 320 g/ha; foliage application after 14-day growth; evaluated three weeks after application
Method in brief: as §4

blackgrass [18] = assay: Test Example 5: herbicidal effect by foliage application, plastic box (Table 20, symbol J); type: in vivo, blackgrass (Alopecurus myosuroides); details: amount of applied herbicide 320 g/ha; foliage application after 14-day growth; evaluated three weeks after application
Method in brief: as §4

Italian ryegrass [19] = assay: Test Example 5: herbicidal effect by foliage application, plastic box (Table 20, symbol K); type: in vivo, Italian ryegrass (Lolium multiflorum); details: amount of applied herbicide 320 g/ha; foliage application after 14-day growth; evaluated three weeks after application
Method in brief: as §4

windgrass [20] = assay: Test Example 5: herbicidal effect by foliage application, plastic box (Table 20, symbol L); type: in vivo, windgrass (Apera spica-venti); details: amount of applied herbicide 320 g/ha; foliage application after 14-day growth; evaluated three weeks after application
Method in brief: as §4

velvetleaf [21] = assay: Test Example 5: herbicidal effect by foliage application, plastic box (Table 20, symbol M); type: in vivo, velvetleaf (Abutilon theophrasti); details: amount of applied herbicide 320 g/ha; foliage application after 14-day growth; evaluated three weeks after application
Method in brief: as §4

redroot pigweed [22] = assay: Test Example 5: herbicidal effect by foliage application, plastic box (Table 20, symbol N); type: in vivo, redroot pigweed (Amaranthus retroflexus); details: amount of applied herbicide 320 g/ha; foliage application after 14-day growth; evaluated three weeks after application
Method in brief: as §4

lambsquarters [23] = assay: Test Example 5: herbicidal effect by foliage application, plastic box (Table 20, symbol O); type: in vivo, lambsquarters (Chenopodium album); details: amount of applied herbicide 320 g/ha; foliage application after 14-day growth; evaluated three weeks after application
Method in brief: as §4

chickweed [24] = assay: Test Example 5: herbicidal effect by foliage application, plastic box (Table 20, symbol P); type: in vivo, common chickweed (Stellaria media); details: amount of applied herbicide 320 g/ha; foliage application after 14-day growth; evaluated three weeks after application
Method in brief: as §4

persian speedwell [25] = assay: Test Example 5: herbicidal effect by foliage application, plastic box (Table 20, symbol R); type: in vivo, Persian speedwell (Veronica persica); details: amount of applied herbicide 320 g/ha; foliage application after 14-day growth; evaluated three weeks after application
Method in brief: as §4

CCCC(=O)Oc1c(C)nn(C)c(=O)c1-c1c(-c2ccc(F)cc2OC)sc2cc(F)c(F)cc12 [5-030]
Herbicidal effect, A: late watergrass (late watergrass): 3 (Herbicidal rate of 40% or more and less than 70%)
Herbicidal effect, B: Japanese bulrush (Japanese bulrush): 1 (Herbicidal rate of 5% or more and less than 20%)
Herbicidal effect, C: oval-leafed pondweed (oval-leafed pondweed): 0 (Herbicidal rate of 5% or less (almost no effect))
herbicidal effect on barnyard grass (H) (barnyard grass [1]): 4 (Herbicidal rate of 70% or more and less than 90%)
herbicidal effect on Chinese sprangletop (D) (Chinese sprangletop): 0 (Herbicidal rate of 5% or less (almost no effect))
herbicidal effect on rice flat sedge (E) (rice flat sedge): 0 (Herbicidal rate of 5% or less (almost no effect))
F: southern crabgrass, herbicidal effect grade (southern crabgrass [2]): 1 (Herbicidal rate of 5% or more and less than 20%)
G: green foxtail, herbicidal effect grade (green foxtail [3]): 4 (Herbicidal rate of 70% or more and less than 90%)
H: barnyard grass, herbicidal effect grade (barnyard grass [4]): 2 (Herbicidal rate of 20% or more and less than 40%)
I: wild oat, herbicidal effect grade (wild oat [5]): 0 (Herbicidal rate of 5% or less (almost no effect))
J: blackgrass, herbicidal effect grade (blackgrass [6]): 5 (Herbicidal rate of 90% or more (almost completely withered))
K: Italian ryegrass, herbicidal effect grade (Italian ryegrass [7]): 0 (Herbicidal rate of 5% or less (almost no effect))
L: windgrass, herbicidal effect grade (windgrass [8]): 5 (Herbicidal rate of 90% or more (almost completely withered))
M: velvetleaf, herbicidal effect grade (velvetleaf [9]): 3 (Herbicidal rate of 40% or more and less than 70%)
N: redroot pigweed, herbicidal effect grade (redroot pigweed [10]): 5 (Herbicidal rate of 90% or more (almost completely withered))
O: lambsquarters, herbicidal effect grade (lambsquarters [11]): 5 (Herbicidal rate of 90% or more (almost completely withered))
P: chickweed, herbicidal effect grade (chickweed [12]): 5 (Herbicidal rate of 90% or more (almost completely withered))
Q: false cleavers, herbicidal effect grade (false cleavers): 0 (Herbicidal rate of 5% or less (almost no effect))
R: persian speedwell, herbicidal effect grade (persian speedwell [13]): 5 (Herbicidal rate of 90% or more (almost completely withered))
Herbicidal effect by foliage application, F: southern crabgrass (southern crabgrass [14]): 0 (Herbicidal rate of 5% or less (almost no effect))
Herbicidal effect by foliage application, G: green foxtail (green foxtail [15]): 0 (Herbicidal rate of 5% or less (almost no effect))
Herbicidal effect by foliage application, H: barnyard grass (barnyard grass [16]): 2 (Herbicidal rate of 20% or more and less than 40%)
Herbicidal effect by foliage application, I: wild oat (wild oat [17]): 0 (Herbicidal rate of 5% or less (almost no effect))
Herbicidal effect by foliage application, J: blackgrass (blackgrass [18]): 4 (Herbicidal rate of 70% or more and less than 90%)
Herbicidal effect by foliage application, K: Italian ryegrass (Italian ryegrass [19]): 0 (Herbicidal rate of 5% or less (almost no effect))
Herbicidal effect by foliage application, L: windgrass (windgrass [20]): 5 (Herbicidal rate of 90% or more (almost completely withered))
Herbicidal effect by foliage application, M: velvetleaf (velvetleaf [21]): 3 (Herbicidal rate of 40% or more and less than 70%)
Herbicidal effect by foliage application, N: redroot pigweed (redroot pigweed [22]): 3 (Herbicidal rate of 40% or more and less than 70%)
Herbicidal effect by foliage application, O: lambsquarters (lambsquarters [23]): 3 (Herbicidal rate of 40% or more and less than 70%)
Herbicidal effect by foliage application, P: chickweed (chickweed [24]): 5 (Herbicidal rate of 90% or more (almost completely withered))
Herbicidal effect by foliage application, R: persian speedwell (persian speedwell [25]): 0 (Herbicidal rate of 5% or less (almost no effect))
